According to ChEMBL document CHEMBL4425144, “Discovery and Structural Optimization of N5-Substituted 6,7-Dioxo-6,7-dihydropteridines as Potent and Selective Epidermal Growth Factor Receptor (EGFR) Inhibitors against L858R/T790M Resistance Mutation” (J Med Chem, 2016):

Assays:
[1] = tested on: NCI-H1975; assay: Antitumor activity against human NCI-H1975 cells xenografted in BALB/c mouse assessed as inhibition of tumor growth at 50 mg/kg, po qd for 14 consecutive days; format: functional; conditions: read-out: TGI
[2] = Apparent volume of distribution in ICR mouse at 1 mg/kg, iv by LC-MS/MS method; format: ADME, organism-based; conditions: in vivo, read-out: Vz
[3] = AUC (0 to t) in ICR mouse at 10 mg/kg, po by LC-MS/MS method; format: ADME, organism-based; conditions: in vivo
[4] = Half life in ICR mouse at 10 mg/kg, po by LC-MS/MS method; format: ADME, organism-based; conditions: in vivo
[5] = tested on: NCI-H1975; assay: Antiproliferative activity against human NCI-H1975 cells incubated for 72 hrs by SRB assay; format: functional, cell-based; conditions: NCI-H1975, 72 h
[6] = Tmax in ICR mouse at 1 mg/kg, iv by LC-MS/MS method; format: ADME, organism-based; conditions: in vivo
[7] = tested on: A-431; assay: Antiproliferative activity against human A431 cells incubated for 72 hrs by SRB assay; format: functional, cell-based; conditions: A-431, 72 h
[8] = biological target: Receptor tyrosine-protein kinase erbB-2 (Homo sapiens) (UniProt P04626); assay: Inhibition of human ERBB2 expressed in mammalian system assessed as remaining enzyme activity at 1000 nM relative to untreated control
[9] = Cmax in ICR mouse at 1 mg/kg, iv by LC-MS/MS method; format: ADME, organism-based; design: dose 1 mg/kg, route intravenous; conditions: in vivo
[10] = biological target: Epidermal growth factor receptor (Homo sapiens, UniProt P00533); assay: Inhibition of wild type EGFR kinase domain (unknown origin) expressed using baculovirus expression system incubated for 1 hr using Poly(Glu,Tyr) 4:1 by ELISA method
[11] = biological target: T1, Tyrosine-protein kinase TXK (Homo sapiens) (UniProt P42681); assay: Inhibition of human TXK expressed in bacterial system assessed as remaining enzyme activity at 1000 nM relative to untreated control
T1 sequence (whole entry): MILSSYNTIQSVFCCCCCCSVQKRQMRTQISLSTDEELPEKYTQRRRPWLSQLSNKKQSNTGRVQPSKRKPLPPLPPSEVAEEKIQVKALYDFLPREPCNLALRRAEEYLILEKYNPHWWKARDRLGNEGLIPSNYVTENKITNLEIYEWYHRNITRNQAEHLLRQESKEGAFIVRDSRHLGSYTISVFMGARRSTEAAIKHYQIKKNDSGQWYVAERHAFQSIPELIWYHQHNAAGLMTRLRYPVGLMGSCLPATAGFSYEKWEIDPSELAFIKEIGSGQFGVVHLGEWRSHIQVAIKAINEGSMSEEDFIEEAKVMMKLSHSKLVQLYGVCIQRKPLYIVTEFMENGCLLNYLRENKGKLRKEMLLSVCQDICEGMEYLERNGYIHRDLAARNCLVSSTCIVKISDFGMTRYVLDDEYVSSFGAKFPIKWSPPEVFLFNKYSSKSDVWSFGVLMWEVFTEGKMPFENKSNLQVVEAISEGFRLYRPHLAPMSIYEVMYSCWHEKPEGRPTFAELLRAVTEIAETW

[12] = biological target: T2, Mitogen-activated protein kinase kinase kinase 6 (Homo sapiens) (UniProt O95382); assay: Inhibition of human ASK2 expressed in mammalian system assessed as remaining enzyme activity at 1000 nM relative to untreated control
T2 sequence (whole entry): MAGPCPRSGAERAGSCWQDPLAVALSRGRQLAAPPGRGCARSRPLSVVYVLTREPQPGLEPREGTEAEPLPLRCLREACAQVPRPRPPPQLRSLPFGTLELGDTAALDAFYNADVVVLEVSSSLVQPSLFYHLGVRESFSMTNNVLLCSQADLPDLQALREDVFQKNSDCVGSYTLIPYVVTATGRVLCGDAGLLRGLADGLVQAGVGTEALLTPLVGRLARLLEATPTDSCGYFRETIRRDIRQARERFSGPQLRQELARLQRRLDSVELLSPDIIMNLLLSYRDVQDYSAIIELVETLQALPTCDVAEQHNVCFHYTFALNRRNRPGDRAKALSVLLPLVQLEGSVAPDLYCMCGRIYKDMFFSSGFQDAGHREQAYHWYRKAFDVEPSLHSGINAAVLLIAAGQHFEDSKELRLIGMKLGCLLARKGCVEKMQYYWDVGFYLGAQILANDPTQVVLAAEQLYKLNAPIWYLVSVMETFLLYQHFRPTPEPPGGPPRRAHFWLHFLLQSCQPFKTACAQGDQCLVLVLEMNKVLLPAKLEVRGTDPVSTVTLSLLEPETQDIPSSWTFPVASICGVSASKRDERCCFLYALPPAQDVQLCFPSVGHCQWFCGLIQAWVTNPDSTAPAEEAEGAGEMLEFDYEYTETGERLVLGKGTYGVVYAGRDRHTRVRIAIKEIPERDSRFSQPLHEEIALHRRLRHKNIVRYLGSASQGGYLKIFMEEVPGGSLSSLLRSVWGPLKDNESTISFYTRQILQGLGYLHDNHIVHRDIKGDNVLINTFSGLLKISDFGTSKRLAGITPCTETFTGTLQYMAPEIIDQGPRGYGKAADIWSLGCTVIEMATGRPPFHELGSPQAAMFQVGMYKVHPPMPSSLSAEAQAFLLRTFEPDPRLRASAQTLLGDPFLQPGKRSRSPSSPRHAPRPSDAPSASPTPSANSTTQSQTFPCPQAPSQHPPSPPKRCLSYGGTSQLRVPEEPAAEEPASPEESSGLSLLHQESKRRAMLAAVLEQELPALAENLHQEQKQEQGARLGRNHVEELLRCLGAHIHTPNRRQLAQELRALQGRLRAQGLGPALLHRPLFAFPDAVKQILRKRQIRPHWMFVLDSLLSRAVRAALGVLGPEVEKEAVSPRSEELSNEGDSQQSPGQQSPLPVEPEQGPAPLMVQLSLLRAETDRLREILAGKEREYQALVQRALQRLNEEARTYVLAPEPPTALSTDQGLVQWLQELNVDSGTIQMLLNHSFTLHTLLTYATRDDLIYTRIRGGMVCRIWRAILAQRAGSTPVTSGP

[13] = AUC (0 to t) in ICR mouse at 1 mg/kg, iv by LC-MS/MS method; format: ADME, organism-based; conditions: in vivo
[14] = Clearance in ICR mouse at 1 mg/kg, iv by LC-MS/MS method; format: ADME, organism-based; conditions: in vivo
[15] = AUC (0 to infinity) in ICR mouse at 1 mg/kg, iv by LC-MS/MS method; format: ADME, organism-based; design: dose 1 mg/kg, route intravenous, time infinity; conditions: in vivo
[16] = Tmax in ICR mouse at 10 mg/kg, po by LC-MS/MS method; format: ADME, organism-based; conditions: in vivo
[17] = Toxicity in human NCI-H1975 cells xenografted BALB/c mouse assessed as body weight loss at 50 mg/kg, po qd for 14 consecutive days; format: organism-based; conditions: in vivo
[18] = Half life in ICR mouse at 1 mg/kg, iv by LC-MS/MS method; format: ADME, organism-based; conditions: in vivo
[19] = Toxicity in human NCI-H1975 cells xenografted BALB/c mouse assessed as mouse mortality at 50 mg/kg, po qd for 14 consecutive days; format: organism-based; conditions: in vivo

Chain of Receptor tyrosine-protein kinase erbB-2 (Homo sapiens) (P04626 whole entry): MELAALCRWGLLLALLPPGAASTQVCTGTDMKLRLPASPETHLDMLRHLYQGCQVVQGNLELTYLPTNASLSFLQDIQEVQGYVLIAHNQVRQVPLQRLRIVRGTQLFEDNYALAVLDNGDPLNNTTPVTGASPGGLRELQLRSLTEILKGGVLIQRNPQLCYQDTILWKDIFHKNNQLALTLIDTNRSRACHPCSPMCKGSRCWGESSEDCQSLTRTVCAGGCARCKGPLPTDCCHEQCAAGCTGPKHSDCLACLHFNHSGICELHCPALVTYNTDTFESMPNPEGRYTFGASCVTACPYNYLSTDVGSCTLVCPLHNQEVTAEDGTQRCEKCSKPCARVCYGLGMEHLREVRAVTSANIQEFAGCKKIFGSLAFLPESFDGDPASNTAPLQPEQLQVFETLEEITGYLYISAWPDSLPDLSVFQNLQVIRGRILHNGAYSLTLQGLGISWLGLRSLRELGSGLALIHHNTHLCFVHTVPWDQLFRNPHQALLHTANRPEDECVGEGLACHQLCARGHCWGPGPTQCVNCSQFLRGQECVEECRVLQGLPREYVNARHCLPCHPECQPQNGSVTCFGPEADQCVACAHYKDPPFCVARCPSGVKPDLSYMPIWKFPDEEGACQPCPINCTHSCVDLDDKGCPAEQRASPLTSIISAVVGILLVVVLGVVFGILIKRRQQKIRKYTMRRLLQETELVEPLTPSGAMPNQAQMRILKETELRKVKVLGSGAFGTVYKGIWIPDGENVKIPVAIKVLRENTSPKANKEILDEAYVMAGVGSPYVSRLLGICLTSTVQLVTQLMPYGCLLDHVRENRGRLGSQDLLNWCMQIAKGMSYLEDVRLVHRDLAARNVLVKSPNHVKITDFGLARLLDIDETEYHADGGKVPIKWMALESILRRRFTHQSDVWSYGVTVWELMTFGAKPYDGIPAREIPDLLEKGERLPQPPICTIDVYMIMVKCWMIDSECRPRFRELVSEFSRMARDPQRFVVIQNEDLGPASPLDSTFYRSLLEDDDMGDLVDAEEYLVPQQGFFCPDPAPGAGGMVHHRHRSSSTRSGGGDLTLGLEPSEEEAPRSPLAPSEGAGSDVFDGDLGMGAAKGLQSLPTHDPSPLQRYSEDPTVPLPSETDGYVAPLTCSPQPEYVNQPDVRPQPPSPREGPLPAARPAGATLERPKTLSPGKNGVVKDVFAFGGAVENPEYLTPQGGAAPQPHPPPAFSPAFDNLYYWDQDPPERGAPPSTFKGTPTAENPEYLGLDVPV
Chain of Epidermal growth factor receptor (P00533 whole entry, the tested form may be a part): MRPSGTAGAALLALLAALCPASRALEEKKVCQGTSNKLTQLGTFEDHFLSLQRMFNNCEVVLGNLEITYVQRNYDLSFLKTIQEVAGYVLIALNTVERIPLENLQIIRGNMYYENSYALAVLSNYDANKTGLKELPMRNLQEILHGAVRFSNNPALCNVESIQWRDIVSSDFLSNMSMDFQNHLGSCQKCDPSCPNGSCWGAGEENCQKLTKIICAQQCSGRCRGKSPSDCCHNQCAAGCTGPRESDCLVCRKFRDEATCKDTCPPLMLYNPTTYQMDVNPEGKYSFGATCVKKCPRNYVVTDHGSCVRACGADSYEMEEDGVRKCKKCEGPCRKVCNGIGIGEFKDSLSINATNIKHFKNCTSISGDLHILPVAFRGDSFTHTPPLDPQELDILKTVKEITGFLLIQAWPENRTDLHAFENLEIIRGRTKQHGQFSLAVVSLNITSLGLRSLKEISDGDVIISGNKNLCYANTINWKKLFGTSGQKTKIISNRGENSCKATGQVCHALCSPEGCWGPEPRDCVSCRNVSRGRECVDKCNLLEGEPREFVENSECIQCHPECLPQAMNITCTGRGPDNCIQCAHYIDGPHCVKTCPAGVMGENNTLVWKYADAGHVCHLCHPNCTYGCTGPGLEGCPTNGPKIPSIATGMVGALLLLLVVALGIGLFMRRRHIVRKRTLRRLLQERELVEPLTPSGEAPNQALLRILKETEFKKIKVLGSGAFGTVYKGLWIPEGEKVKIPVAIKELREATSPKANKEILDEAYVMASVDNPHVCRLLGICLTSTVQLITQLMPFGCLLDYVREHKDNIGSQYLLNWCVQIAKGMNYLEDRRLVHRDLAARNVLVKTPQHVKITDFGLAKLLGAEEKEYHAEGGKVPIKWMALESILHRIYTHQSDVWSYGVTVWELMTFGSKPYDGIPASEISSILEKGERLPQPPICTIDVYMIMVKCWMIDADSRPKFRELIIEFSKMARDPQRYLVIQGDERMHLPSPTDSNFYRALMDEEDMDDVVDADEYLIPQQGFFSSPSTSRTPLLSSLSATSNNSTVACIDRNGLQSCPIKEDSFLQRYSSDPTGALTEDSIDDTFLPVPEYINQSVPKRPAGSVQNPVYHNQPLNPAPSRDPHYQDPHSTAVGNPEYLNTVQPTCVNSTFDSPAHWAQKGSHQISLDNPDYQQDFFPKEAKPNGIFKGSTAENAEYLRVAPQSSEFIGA

SMILES: C=CC(=O)Nc1cccc(-n2c(=O)c(=O)n(C(C)C)c3cnc(Nc4ccc(N5CCN(C)CC5)cc4OC)nc32)c1
- inhibition in vivo at 50 mg/kg [1]: 52%
- Vd [2]: 8.01 L/kg
- AUC(0-t) [3]: 673 ng·h/mL
- half-life [4]: 1.1 h
- IC50 [5]: 18 nM
- Tmax [6]: 0.9 h
- IC50 [7]: 7770 nM
- Activity [8]: < 1%
- Cmax [9]: 258 ng/mL
- IC50 [10]: 2 nM
- Activity [11]: < 1%
- Activity [12]: < 1%
- AUC(0-t) [13]: 140 ng·h/mL
- clearance [14]: 117 mL/min/kg
- AUC(0-inf) [15]: 143 ng·h/mL
- Tmax [16]: 2 h
- Activity [17]: Non-Toxic
- half-life [18]: 0.8 h
- Activity [19]: Non-Toxic
